Measurements as given in paper PMC8284453 (Antimicrobial Agents and Chemotherapy, 2021).
Where two headings read alike, the source gives them in different places.

What was measured:
Assay in all cases: organism not typed
[1] = tested on: Enterobacterales expressing class A ESBLs; type: cell-based, E. coli, K. pneumoniae
[2] = tested on: Enterobacterales expressing class A carbapenemases (KPC); type: cell-based, K. pneumoniae, E. coli, E. cloacae, Klebsiella oxytoca
[3] = tested on: Enterobacterales expressing class D oxacillinases (OXA-48/48-like); type: cell-based, E. coli, K. pneumoniae
[4] = 25 isolates, BLI fixed at 4 μg/ml, AMC 2:1

Nc1nc(/C(=C/CC(=O)O)C(=O)N[C@@H]2C(=O)N3C(C(=O)O)=CCS[C@H]23)cs1 [CTB, ceftibuten]
1 mg/L: MIC ([2]; K. pneumoniae 845904 (KPC)) | MIC ([2]; K. pneumoniae UMM (KPC-2, SHV-5, TEM-1))
4 mg/L: MIC ([2]; K. pneumoniae 847747 (KPC))
0.5 mg/L: MIC ([2]; K. oxytoca 847539 (KPC)) | MIC ([2]; K. pneumoniae 845670 (KPC))
0.25 mg/L: MIC ([3]; E. coli SI-422 (OXA-48))
32 mg/L: MIC ([2]; E. coli 786978 (KPC)) | MIC ([2]; K. pneumoniae 845661 (KPC)) | MIC ([2]; K. pneumoniae 845665 (KPC)) | MIC ([3]; E. coli 664516 (OXA-48)) | MIC ([3]; E. coli 664522 (OXA-48)) | MIC ([3]; E. coli 664525 (OXA-48)) | MIC ([3]; K. pneumoniae 664518 (OXA-48))
≥ 64 mg/L: MIC90 [1] | MIC90 [2] | MIC90 [2, 4] | MIC ([2]; E. cloacae 847426 (KPC)) | MIC ([2]; E. cloacae OIMGH49 (p99 AmpC, ACT-2, KPC-2, TEM-1)) | MIC ([2]; K. oxytoca 847537 (KPC)) | MIC ([2]; K. pneumoniae 155140 (AmpC, KPC-2, SHV-12, TEM-1)) | MIC90 [3, 4] | MIC ([3]; E. coli 787112 (OXA-48)) | MIC ([3]; K. pneumoniae 664509 (OXA-48)) | MIC ([3]; K. pneumoniae BAH (OXA-204)) | MIC ([3]; K. pneumoniae DEL (OXA-232))
16 mg/L: MIC50 [2] | MIC ([2]; E. cloacae 847429 (KPC)) | MIC ([2]; K. pneumoniae 845662 (KPC)) | MIC ([2]; K. pneumoniae 845667 (KPC)) | MIC ([2]; K. pneumoniae 847204 (KPC)) | MIC ([2]; K. pneumoniae 847387 (KPC)) | MIC ([2]; K. pneumoniae 848832 (KPC)) | MIC ([2]; K. pneumoniae 848844 (KPC)) | MIC50 [3, 4] | MIC ([3]; E. coli 664507 (OXA-48)) | MIC ([3]; E. coli 664520 (OXA-48)) | MIC ([3]; E. coli 664523 (OXA-48)) | MIC ([3]; E. coli 664524 (OXA-48)) | MIC ([3]; E. coli 664526 (OXA-48)) | MIC ([3]; E. coli 664528 (OXA-48)) | MIC ([3]; K. pneumoniae 515746 (OXA-48), first line) | MIC ([3]; K. pneumoniae 515746 (OXA-48), second line) | MIC ([3]; K. pneumoniae 664438 (OXA-48)) | MIC ([3]; K. pneumoniae 664439 (OXA-48))
2 mg/L: MIC ([2]; K. pneumoniae 897067 (KPC))
8 mg/L: MIC50 [1] | MIC ([2]; K. pneumoniae 847375 (KPC)) | MIC ([2]; K. pneumoniae 847378 (KPC)) | MIC ([2]; K. pneumoniae 847379 (KPC)) | MIC ([2]; K. pneumoniae 847383 (KPC)) | MIC ([2]; K. pneumoniae 847384 (KPC)) | MIC ([3]; K. pneumoniae 6299 (OXA-163)) | MIC ([3]; K. pneumoniae 722870 (OXA-48)) | MIC ([3]; K. pneumoniae DOV (OXA-48)) | MIC ([3]; K. pneumoniae KIRK (OXA-162))
0.06 mg/L: MIC ([3]; E. coli VER (OXA-48))
